Measured values taken from PubChem BioAssay AID248 (DTP/NCI, 2004).
Several values for one entry are separate records, joined by “and”; a condition that tells them apart may be missing. Identical values can stand only once. Toxic doses and inconclusive results are not listed. Cut-off read from the data, not from the text of the source: active = T/C of 150% or more; inactive = T/C below 125%.

Test system: L1210 leukemia ip in BDF1 mice, survival T/C
Assay: NCI In Vivo Anticancer Drug Screen. Data for tumor model L1210 Leukemia (intraperitoneal) in B6D2F1 (BDF1) mice
Conditions: endpoint: mean survival time, higher = longer survival
Outline: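 Antitumor effect is assessed in tumor-bearing animals. Survival in the compound arm is compared with a vehicle-dosed control arm and expressed as their quotient.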

[1] = dose: 100.0 mg/kg/injection, schedule: Q04DX003 (ip), vehicle: Klucel (hydroxypropylcellulose) (HPC)
[2] = dose: 200.0 mg/kg/injection, schedule: Q04DX003 (ip), vehicle: Klucel (hydroxypropylcellulose) (HPC)
[3] = dose: 400.0 mg/kg/injection, schedule: Q04DX003 (ip), vehicle: Klucel (hydroxypropylcellulose) (HPC)
[4] = dose: 100.0 mg/kg/injection, schedule: Q04DX003 (ip), vehicle: saline with Tween-80
[5] = dose: 200.0 mg/kg/injection, schedule: Q04DX003 (ip), vehicle: saline with Tween-80
[6] = dose: 400.0 mg/kg/injection, schedule: Q04DX003 (ip), vehicle: saline with Tween-80
[7] = dose: 100.0 mg/kg/injection, schedule: Q01DX001 (ip), vehicle: saline
[8] = dose: 200.0 mg/kg/injection, schedule: Q01DX001 (ip), vehicle: saline
[9] = dose: 400.0 mg/kg/injection, schedule: Q01DX001 (ip), vehicle: saline

Measured: T/C

O=[N+]([O-])c1ccc(S(=O)(=O)C2CCCCC2Cl)cc1 (centres undefined)
inactive: dose: 100.0 mg/kg/injection, schedule: Q01DX009 (ip), vehicle: Klucel (hydroxypropylcellulose) (HPC) 88 % of control | dose: 200.0 mg/kg/injection, schedule: Q01DX009 (ip), vehicle: Klucel (hydroxypropylcellulose) (HPC) 91 % of control | dose: 400.0 mg/kg/injection, schedule: Q01DX009 (ip), vehicle: Klucel (hydroxypropylcellulose) (HPC) 90 % of control

N=C(c1ccccc1)C1SCCCS1
inactive: [1] 103 % of control | [2] 97 % of control | [3] 97 % of control

CC1Oc2ccccc2OC1C(=O)NN (centres undefined)
inactive: [4] 95 % of control | [5] 97 % of control | [6] 106 % of control

Cc1c2oc3c(C)ccc(C(=O)NC4C(=O)NC(C(C)C)C(=O)N5CCCC5C(=O)N(C)CC(=O)N(C)C(C(C)C)C(=O)OC4C)c3nc-2c(C(=O)NC2C(=O)NC(C(C)C)C(=O)N3CCCC3C(=O)N(C)CC(=O)N(C)C(C(C)C)C(=O)OC2C)cc1=O (centres undefined)
inactive: dose: 0.1 mg/kg/injection, schedule: Q01DX009 (ip), vehicle: saline + alcohol 101 % of control | dose: 0.2 mg/kg/injection, schedule: Q01DX001 (ip), vehicle: saline + alcohol 102 % of control | dose: 0.2 mg/kg/injection, schedule: Q01DX009 (ip), vehicle: saline + alcohol 107 % of control | dose: 0.25 mg/kg/injection, schedule: Q01DX009 (ip), vehicle: saline + alcohol 101 % of control | dose: 0.4 mg/kg/injection, schedule: Q01DX001 (ip), vehicle: saline + alcohol 104 % of control | dose: 0.4 mg/kg/injection, schedule: Q01DX009 (ip), vehicle: saline + alcohol 112 % of control | dose: 0.5 mg/kg/injection, schedule: Q01DX009 (ip), vehicle: saline + alcohol 97 % of control | dose: 0.6 mg/kg/injection, schedule: Q04DX003 (ip), vehicle: saline + alcohol 101 % of control | dose: 0.8 mg/kg/injection, schedule: Q01DX001 (ip), vehicle: saline + alcohol 104 % of control | dose: 1.0 mg/kg/injection, schedule: Q01DX009 (ip), vehicle: saline + alcohol 93 % of control | dose: 1.2 mg/kg/injection, schedule: Q04DX003 (ip), vehicle: saline + alcohol 109 % of control | dose: 1.25 mg/kg/injection, schedule: Q04DX003 (ip), vehicle: saline + alcohol 96 % of control | dose: 1.6 mg/kg/injection, schedule: Q01DX001 (ip), vehicle: saline + alcohol 106 % of control | dose: 2.0 mg/kg/injection, schedule: Q01DX009 (ip), vehicle: saline + alcohol 106 % of control | dose: 2.4 mg/kg/injection, schedule: Q04DX003 (ip), vehicle: saline + alcohol 119 % of control | dose: 2.5 mg/kg/injection, schedule: Q04DX003 (ip), vehicle: saline + alcohol 97 % of control | dose: 3.2 mg/kg/injection, schedule: Q01DX001 (ip), vehicle: saline + alcohol 111 % of control | dose: 4.0 mg/kg/injection, schedule: Q01DX009 (ip), vehicle: saline + alcohol 103 % of control | dose: 5.0 mg/kg/injection, schedule: Q04DX003 (ip), vehicle: saline + alcohol 105 % of control | dose: 6.4 mg/kg/injection, schedule: Q01DX001 (ip), vehicle: saline + alcohol 117 % of control | dose: 10.0 mg/kg/injection, schedule: Q04DX003 (ip), vehicle: saline + alcohol 106 % of control | dose: 20.0 mg/kg/injection, schedule: Q04DX003 (ip), vehicle: saline + alcohol 116 % of control | dose: 12.5 micrograms/kg/injection, schedule: Q01DX009 (ip), vehicle: saline + alcohol 101 % of control | dose: 50.0 micrograms/kg/injection, schedule: Q01DX009 (ip), vehicle: saline + alcohol 103 % of control | dose: 75.0 micrograms/kg/injection, schedule: Q04DX003 (ip), vehicle: saline + alcohol 104 % of control | dose: 150.0 micrograms/kg/injection, schedule: Q04DX003 (ip), vehicle: saline + alcohol 102 % of control | dose: 300.0 micrograms/kg/injection, schedule: Q04DX003 (ip), vehicle: saline + alcohol 106 % of control

CC(=O)NC(C)C(C)C (centres undefined)
inactive: dose: 100.0 mg/kg/injection, schedule: Q04DX003 (ip), vehicle: saline 94 % of control | dose: 200.0 mg/kg/injection, schedule: Q04DX003 (ip), vehicle: saline 107 % of control | dose: 400.0 mg/kg/injection, schedule: Q04DX003 (ip), vehicle: saline 104 % of control

O=C1c2ccccc2-c2ccc(-c3ccccc3)c3ccc(CCc4ccccc4)c1c23
inactive: [4] 100 % of control | [5] 89 % of control | [6] 89 % of control

C1=C\CCCCCCCC/1
inactive: dose: 6.25 mg/kg/injection, schedule: Q01DX009 (ip), vehicle: saline with Tween-80 93 % of control | dose: 12.5 mg/kg/injection, schedule: Q01DX009 (ip), vehicle: saline with Tween-80 104 % of control | dose: 25.0 mg/kg/injection, schedule: Q01DX009 (ip), vehicle: saline with Tween-80 98 % of control | [7] 101 % of control | [8] 101 % of control | [9] 95 % of control

CCCC[P+](CC(C)(C)c1ccc(C)cc1)(c1ccccc1)c1ccccc1
inactive: dose: 1.56 mg/kg/injection, schedule: Q04DX002 (ip), vehicle: saline 96 % of control | dose: 3.13 mg/kg/injection, schedule: Q04DX002 (ip), vehicle: saline 104 % of control | dose: 6.25 mg/kg/injection, schedule: Q04DX002 (ip), vehicle: saline 100 % of control | dose: 12.5 mg/kg/injection, schedule: Q04DX002 (ip), vehicle: saline 96 % of control | dose: 100.0 mg/kg/injection, schedule: Q04DX002 (ip), vehicle: saline with Tween-80 103 % of control

CCOC(=O)C(C)(O)C1(Cl)CCC(C(C)(C)C)CC1 (centres undefined)
inactive: dose: 100.0 mg/kg/injection, schedule: Q04DX002 (ip), vehicle: saline 103 % of control | dose: 200.0 mg/kg/injection, schedule: Q04DX002 (ip), vehicle: saline 103 % of control | dose: 400.0 mg/kg/injection, schedule: Q04DX002 (ip), vehicle: saline 100 % of control

CC(=O)Nc1nc(/C=N/NC(N)=S)cc(=O)[nH]1
inactive: dose: 75.0 mg/kg/injection, schedule: Q01DX001 (ip), vehicle: other 100 % of control | dose: 150.0 mg/kg/injection, schedule: Q01DX001 (ip), vehicle: other 96 % of control | dose: 300.0 mg/kg/injection, schedule: Q01DX001 (ip), vehicle: other 105 % of control

CCCCCC(=O)/C=C/CC(CCCCCCC#N)C(CC(OC)OC)[N+](=O)[O-] (centres undefined)
inactive: [1] 100 % of control | [2] 96 % of control | [3] 96 % of control

Cn1cnnc1[N+](=O)[O-]
inactive: dose: 100.0 mg/kg/injection, schedule: Q04DX003 (ip), vehicle: saline sonified 105 % of control

Cc1ccc2[nH]c3c(C)c4ccncc4c(C)c3c2c1
inactive: dose: 12.5 mg/kg/injection, schedule: Q01DX Z (ip), vehicle: saline 103 % of control | dose: 25.0 mg/kg/injection, schedule: Q01DX Z (ip), vehicle: saline 97 % of control | dose: 50.0 mg/kg/injection, schedule: Q01DX Z (ip), vehicle: saline 111 % of control | dose: 75.0 mg/kg/injection, schedule: Q01DX Z (ip), vehicle: saline 102 % of control | [7] 105 % of control | dose: 100.0 mg/kg/injection, schedule: Q01DX Z (ip), vehicle: saline 97 % of control and 107 % of control | dose: 150.0 mg/kg/injection, schedule: Q01DX Z (ip), vehicle: saline 100 % of control | [8] 98 % of control | dose: 225.0 mg/kg/injection, schedule: Q01DX Z (ip), vehicle: saline 105 % of control | dose: 340.0 mg/kg/injection, schedule: Q01DX Z (ip), vehicle: saline 102 % of control | [9] 100 % of control
